Assay results taken from patent US10959961B2, “Methods of administering anionic cannabinoid molecules dissolved in water” (priority 2018, dated 2021).
“And” between values parts separate entries of the source, which are not always exact repeats. Identical values can stand only once.

How the values were obtained:
[1] = test system: healthy, consenting adults; test: Qualitative assessment of pharmacokinetics in humans, oral self-administration (Example 23); assay type: in vivo, human
Protocol: Approximately 60 milligrams of 2-[(1R,6R)-6-isopropenyl-3-methylcyclohex-2-en-1-yl]-3-hydroxy-5-pentylphenolate prepared from crude industrial hemp extract was dissolved in water as described in Example 16, buffered to a pH of 9.1, and added to a 296 milliliter bottle of DASANI® purified water. […] A healthy, consenting adult self-administered the entire bottle of 60 milligrams of 2-[(1R,6R)-6-isopropenyl-3-methylcyclohex-2-en-1-yl]-3-hydroxy-5-pentylphenolate in water orally over 5 to 10 minutes. […] The individual described the psychoactive effect as a pleasant sensation accompanied by both an enhanced ability to focus and elevated alertness.
Approximately 30 milligrams of 2-[(1R,6R)-6-isopropenyl-3-methylcyclohex-2-en-1-yl]-3-hydroxy-5-pentylphenolate prepared from crude industrial hemp extract was dissolved in water, buffered to a pH of 9.1, and added to each of four 296 milliliter bottles of DASANI® purified water. […] Four healthy, consenting adults orally self-administered varying amounts of the four solutions over 5 to 10 minutes.

[2] = Removal of ethanol in a vacuum oven up to 157° C. (Example 15); assay type: physicochemical; details: oven under vacuum, ramped to 157° C.; purple taffy-like product
Protocol: 372 grams of crude industrial hemp extract containing approximately 65% cannabidiol was dissolved in ethanol at a weight ratio of 1:2 crude to ethanol. 43.2 grams of potassium hydroxide was slowly added to the hemp extract in ethanol, and the solution was stirred while heating at 55° C. The solution was then placed in an oven under vacuum and slowly ramped to a temperature of 157° C. over the course of approximately 1 hour, at which time heating was discontinued. The solution was then left in the oven under vacuum overnight.
The product produced by ethanol removal in an oven under vacuum was purple with a taffy-like consistency indicative of polymer formation. The product lacked appreciable solubility in water.

[3] = Commercial viability of beverages: phenolate solution added to bottled water (Example 21); assay type: physicochemical
Protocol: 20 milliliters of water was removed from a 1 liter bottle of ESSENTIA® OVERACHIEVING H2O®. ESSENTIA® OVERACHIEVING H2O® contains purified water, sodium bicarbonate, dipotassium phosphate, magnesium sulfate, and calcium chloride, and its pH was determined to be about 9.5. The 20 milliliters of removed water was replaced with 20 milliliters of the 20 gram-per-liter solution of 2-[(1R,6R)-6-isopropenyl-3-methylcyclohex-2-en-1-yl]-3-hydroxy-5-pentylphenolate, which is described in Example 19, and the bottle was sealed using the screw-cap top of the bottle to produce a sealed container containing approximately 400 milligrams of 2-[(1R,6R)-6-isopropenyl-3-methylcyclohex-2-en-1-yl]-3-hydroxy-5-pentylphenolate. The pH of the liquid was measured and determined to be about 10.
5 milliliters of water was removed from a 500 milliliter bottle of DASANI® purified water. DANSANI® purified water contains purified water, magnesium sulfate, potassium chloride, and sodium chloride, and its pH was determined to be about 7.0. The 5 milliliters of removed water was replaced with 5 milliliters of the 20 gram-per-liter solution of 2-[(1R,6R)-6-isopropenyl-3-methylcyclohex-2-en-1-yl]-3-hydroxy-5-pentylphenolate, which is described in Example 19, and the bottle was sealed using the screw-cap top of the bottle to produce a sealed container containing approximately 100 milligrams of 2-[(1R,6R)-6-isopropenyl-3-methylcyclohex-2-en-1-yl]-3-hydroxy-5-pentylphenolate. The pH of the liquid was measured and determined to be about 9.5.
0.5 milliliters of water was removed from a 500 milliliter bottle of DASANI® purified water. […] The pH of the liquid was measured and determined to be about 8.5.

[4] = Third-party HPLC cannabinoid profile of olive oil extract of the aqueous solution (Example 24); assay type: physicochemical
Protocol: Pure cannabidiol was deprotonated and dissolved in water using a strategy similar to those described in Examples 16 and 19. Acetic acid was then added to 100 milliliters of the water, dropwise, until the purple color disappeared to reform cannabidiol. Reprotonated cannabidiol was extracted from the water using 4 milliliters of olive oil. Two 1 milliliter samples of the olive oil were sent to Botanacor Laboratories (Boulder, Colo.) for cannabinoid profile analysis using an Agilent Technologies (Santa Clara, Calif.) High Performance Liquid Chromatography instrument with a diode array detector. Botanacor Laboratories is ISO/IEC 17025 accredited for cannabinoid potency determination.

[5] = Color of phenolate in carbonate/bicarbonate buffer at variable pH (Example 19); assay type: physicochemical; details: approximately 1 gram-per-liter
Protocol: 1 gram of cannabidiol was dissolved in 6.6 milliliters of 0.5 molar potassium hydroxide in ethanol to produce 2-[(1R,6R)-6-isopropenyl-3-methylcyclohex-2-en-1-yl]-3-hydroxy-5-pentylphenolate. The solution was then diluted with 100 millimolar sodium carbonate in water to a final volume of 50 milliliters to produce a solution comprising 2-[(1R,6R)-6-isopropenyl-3-methylcyclohex-2-en-1-yl]-3-hydroxy-5-pentylphenolate at approximately 20-grams-per-liter. 0.5 milliliters of the 2-[(1R,6R)-6-isopropenyl-3-methylcyclohex-2-en-1-yl]-3-hydroxy-5-pentylphenolate solution was added to each of 25 test tubes containing 9.5 milliliters of 100 millimolar (0.1 M) carbonate/bicarbonate (CO3^2−/HCO3^−) buffer according to Table 1. Each test tube contained approximately 10 milligrams of 2-[(1R,6R)-6-isopropenyl-3-methylcyclohex-2-en-1-yl]-3-hydroxy-5-pentylphenolate at a concentration of approximately 1 gram-per-liter. pH's were confirmed by multiple different measurements.
It was expected that 2-[(1R,6R)-6-isopropenyl-3-methylcyclohex-2-en-1-yl]-3-hydroxy-5-pentylphenolate would reform cannabidiol at pH's below a threshold pH as evidenced by an expected color change from purple (indicative of 2-[(1R,6R)-6-isopropenyl-3-methylcyclohex-2-en-1-yl]-3-hydroxy-5-pentylphenolate) to colorless (indicative of cannabidiol).

[6] = Adjusting the pH of the phenolate emulsion to 9.1 with sodium bicarbonate (Examples 7 and 8); assay type: physicochemical; details: emulsion adjusted to pH 9.1, color change and lipid phase separation
Protocol: 1.65 grams of carbon-filtered industrial hemp extract comprising approximately 65% cannabidiol was dissolved in 10 milliliters of 420 millimolar potassium hydroxide in ethanol to convert the cannabidiol into 2-[(1R,6R)-6-isopropenyl-3-methylcyclohex-2-en-1-yl]-3-hydroxy-5-pentylphenolate.
1 gram of cannabidiol isolate was dissolved in 10 milliliters of 380 millimolar potassium hydroxide in ethanol to convert the cannabidiol into 2-[(1R,6R)-6-isopropenyl-3-methylcyclohex-2-en-1-yl]-3-hydroxy-5-pentylphenolate.

[7] = Approximate pKa of cannabidiol by color at varying sodium bicarbonate (Example 20); assay type: physicochemical; details: from color change at pH 8.0 and 8.3, read-out: pKa of cannabidiol in dilute aqueous solution
Protocol: This example confirms that 2-[(1R,6R)-6-isopropenyl-3-methylcyclohex-2-en-1-yl]-3-hydroxy-5-pentylphenolate is viable for inclusion in beverages formulated for human consumption. 0.5 milliliters of the 20 gram-per-liter solution of 2-[(1R,6R)-6-isopropenyl-3-methylcyclohex-2-en-1-yl]-3-hydroxy-5-pentylphenolate described in Example 19 was diluted with 9.5 milliliters of distilled water comprising varying concentrations of sodium bicarbonate, and color was monitored as shown in Table 2. pH's were confirmed by multiple different measurements.
A color change was visually apparent at a pH of 8.0, and a subtle color change was visually apparent at pH of 8.3.

[8] = Dissolving salts of the phenolate in water (Examples 14 and 17); assay type: physicochemical; details: salt from 1.4 grams cannabidiol, dried under vacuum; 90 milliliters
Protocol: 1.4 grams of pure cannabidiol was dissolved in 10 milliliters of 0.5 molar potassium hydroxide in ethanol to convert the cannabidiol into 2-[(1R,6R)-6-isopropenyl-3-methylcyclohex-2-en-1-yl]-3-hydroxy-5-pentylphenolate. A potassium salt of 2-[(1R,6R)-6-isopropenyl-3-methylcyclohex-2-en-1-yl]-3-hydroxy-5-pentylphenolate was formed by drying the ethanol solution under vacuum overnight. 90 milliliters of 100 millimolar aqueous sodium carbonate was added to the potassium salt of 2-[(1R,6R)-6-isopropenyl-3-methylcyclohex-2-en-1-yl]-3-hydroxy-5-pentylphenolate.
This example describes a successful attempt to produce a salt of 2-[(1R,6R)-6-isopropenyl-3-methylcyclohex-2-en-1-yl]-3-hydroxy-5-pentylphenolate that readily dissolves in water. A first aliquot from Example 16 was lyophilized to produce salts including a potassium 2-[(1R,6R)-6-isopropenyl-3-methylcyclohex-2-en-1-yl]-3-hydroxy-5-pentylphenolate salt and a sodium 2-[(1R,6R)-6-isopropenyl-3-methylcyclohex-2-en-1-yl]-3-hydroxy-5-pentylphenolate salt. […] The water was centrifuged to remove undissolved salt and to produce an aqueous solution of 2-[(1R,6R)-6-isopropenyl-3-methylcyclohex-2-en-1-yl]-3-hydroxy-5-pentylphenolate concentrate for inclusion in beverages.

[9] = approximately 60 milligrams in 296 mL water, pH 9.1, oral over 5 to 10 minutes, one adult

C=C(C)[C@@H]1CCC(C)=C[C@H]1c1c(O)cc(CCCCC)cc1O [2-[(1R,6R)-6-isopropenyl-3-methylcyclohex-2-en-1-yl]-3-hydroxy-5-pentylphenolate]
onset of a perceptible psychoactive effect [1, 9]: within minutes of ingestion | time of marked perceptible psychoactive effect following ingestion [1, 9]: approximately 30 minutes | individuals reporting rapid onset of a perceptible psychoactive effect within minutes of ingestion ([1]; approximately 100 milligrams per liter, pH 9.1, varying amounts, oral over 5 to 10 minutes, four adults): Three of the four individuals | time to psychoactive effects after ingestion ([1]; dissolved in water, orally administered): less than 5 minutes | stability at high temperatures [2]: unstable at high temperatures | appearance of the liquid ([3]; approximately 10 milligrams in 500 milliliter DASANI water, pH about 8.5): transparent and lacked discernable color | appearance of the liquid ([3]; approximately 100 milligrams in 500 milliliter DASANI water, pH about 9.5): transparent and purple | appearance of the liquid ([3]; approximately 400 milligrams in 1 liter ESSENTIA water, pH about 10): purple and transparent | concentration dissolved in water ([4]; worked out from the olive oil samples): about 78 milligrams per liter | color change from purple to colorless ([5]; pH's of 9.1 and above, 0.1 M carbonate/bicarbonate buffer): No color change

C=C(C)[C@@H]1CCC(C)=C[C@H]1c1c(O)cc(CCCCC)cc1O [cannabidiol, 2-[(1R,6R)-6-isopropenyl-3-methylcyclohex-2-en-1-yl]-5-pentylbenzene-1,3-diol]
pKa ([6]; Example 7, from carbon-filtered industrial hemp extract, read-out: pKa of cannabidiol in water): > 9.1 | pKa of cannabidiol in water ([6]; Example 8, from cannabidiol isolate): greater than 9.1 | other cannabinoids in the olive oil samples ([4]; HPLC with diode array detector): did not detect any other cannabinoid | cannabidiol content of olive oil samples ([4]; reprotonated with acetic acid, 100 mL water extracted with 4 mL olive oil, two samples, HPLC): 0.18 % by weight and 0.21 % by weight | pKa [7]: 8 to 8.5 | pKa ([5]; Example 19, dilute aqueous solutions, read-out: pKa of cannabidiol): < 9.1

C=C(C)[C@@H]1CCC(C)=C[C@H]1c1c([O-])cc(CCCCC)cc1O.[K+] [potassium salt of 2-[(1R,6R)-6-isopropenyl-3-methylcyclohex-2-en-1-yl]-3-hydroxy-5-pentylphenolate]
dissolution in 100 millimolar aqueous sodium carbonate [8]: the majority of the salt remained in the solid phase
